Data published in patent publication US9180187B2, “Medicament for treating and/or preventing cancer” (TORAY INDUSTRIES, INC., priority 2010, dated 2015).
Like-named read-outs stand apart in the source and are kept apart here.

Columns and labels:
[1] = test system: MCF-7 human breast cancer cell line; assay: 50% inhibitory concentration of antitumor agents, living cell count with trypan blue; assay type: cell-based; details: MCF7, 48 h, read-out: 50% inhibitory concentration of antitumor agents against MCF-7
[2] = test system: human breast cancer cell line MDA-MB-157; assay: ADCC activity, chromium-51 release; assay type: cell-based; details: 1 μg antibody, mouse lymphocytes 2×10^5 cells, 10^3 target cells, 4 hours
Protocol: The above-selected anti-CAPRIN-1 monoclonal antibodies #1 to #11 were evaluated for their cytotoxic activities against cancer cells (ADCC activity). Hybridomas producing the monoclonal antibodies #1 to #11 were each cultured using hybridoma SFM medium (Invitrogen). The thus obtained supernatant was purified using Hitrap ProteinA Sepharose FF (GE HealthCare), replaced with PBS(−), and then filtered through 0.22 μm filter (Millipore). The obtained filtrates were used as antibodies for assay. The human breast cancer cell line MDA-MB-157 (10^6 cells) was collected in a 50-ml centrifuge tube, to which 100 μCi chromium(Cr)-51 was then added, and incubated at 37° C. for 2 hours. Subsequently, the cells were washed 3 times with RPMI1640 medium containing 10% FBS, and then dispensed into each well of a 96-well V-bottom plate at 10^3 cells per well. The thus obtained cells are used as target cell. The above purified antibodies (1 μg each) were added to the cells. Separately, mouse lymphocytes separated from the mouse spleen were further added (2×10^5 cells) and then cultured under conditions of 37° C. and 5% CO2 for 4 hours. After culture, the amount of chromium(Cr)-51 released from cytotoxically impaired tumor cells in a culture supernatant was measured, so that the ADCC activity of each anti-CAPRIN-1 antibody against cancer cells was calculated. […] On the other hand, similar procedures were performed using the monoclonal antibodies (which were prepared in Example 2) reactive with the CAPRIN-1 protein itself, but not reactive with the surface of cancer cells, no cytotoxic activity was observed (see FIG. 1). […] Similarly, the anti-CAPRIN-1 antibodies were examined for ADCC activity against other human cancer cell lines including glioma cell lines (T98G and U373), lung cancer cell lines (A549 and QG56), renal cancer cell lines (Caki-1 and ACHN), a uterine cervix cancer cell line (SW756), a bladder cancer cell line (T24), an esophageal cancer cell line (KYSE180), gastric cancer cell lines (MNK28 and MNK45), a colorectal cancer cell line (SW480), a leukemia cell line (AML5), and a lymphoma cell line (Ramos).

[3] = test system: MCF-7 human breast cancer cell line; assay: In vivo combination therapy in tumor-bearing nude mice transplanted with MCF-7; details: experimental section 1 (anti-CAPRIN-1 antibody = #2, 5 mg/kg i.p.), day 26, mouse PBMC given to all groups
Protocol: IgG2b (R&D systems, catalog No. MAB11291)) were administered in combination, a group to which an antitumor agent and anti-CAPRIN-1 monoclonal antibody were administered in combination, and a group to which control (PBS(−) was administered. In addition, mouse PBMC was administered to all the administration groups. […] PBMC separated from Balb/c mouse spleen was intravenously administered to each mouse at 1×10^7 cells/0.2 mL (RPMI1640) on days 0, 8, and 15 after the start of the experiment. […] PBMC separated from Balb/c mouse spleen was intravenously administered to each mouse at 1×10^7 cells/0.2 mL (RPMI1640) on days 0, 8, and 15 after the start of the experiment. Paclitaxel was intraperitoneally administered to each of 5 tumor-bearing mice at 15 mg/kg/shot on days 0 and 3 after the start of the experiment. PBMC separated from Balb/c mouse spleen was intravenously administered to each mouse at 1×10^7 cells/0.2 mL (RPMI1640) on days 0, 8, and 15 after the start of the experiment. Docetaxel was intraperitoneally administered to each of 5 tumor-bearing mice at 10 mg/kg/shot on days 0 and 3 after the start of the experiment. PBMC separated from Balb/c mouse spleen was intravenously administered to each mouse at 1×10^7 cells/0.2 mL (RPMI1640) on days 0, 8, and 15 after the start of the experiment. […]

[4] = MCF-7, 2-days culture with agent, living cells counted with trypan blue

CCC1=C[C@@H]2CN(C1)Cc1c([nH]c3ccccc13)[C@@](C(=O)OC)(c1cc3c(cc1OC)N(C)[C@H]1[C@@](O)(C(=O)OC)[C@H](OC(C)=O)[C@]4(CC)C=CCN5CC[C@]31[C@@H]54)C2 [Vinorelbine, vinorelbine] was tested, and the IC50 [1, 4] was 20 nM.

Work on CC(=O)O[C@@]12CO[C@@H]1C[C@H](O)[C@@]1(C)C(=O)[C@H](O)C3=C(C)[C@@H](OC(=O)[C@H](O)[C@@H](NC(=O)OC(C)(C)C)c4ccccc4)C[C@@](O)([C@@H](OC(=O)c4ccccc4)[C@H]21)C3(C)C [Docetaxel, docetaxel] yielded an IC50 [1, 4] of 0.1 nM.

For O=P1(N(CCCl)CCCl)NCCCO1 (centres unmarked) [Cyclophosphamide, cyclophosphamide], the IC50 [1] was 30 nM.

CC(=O)O[C@H]1C(=O)[C@@]2(C)[C@H]([C@H](OC(=O)c3ccccc3)[C@]3(O)C[C@H](OC(=O)[C@H](O)[C@@H](NC(=O)c4ccccc4)c4ccccc4)C(C)=C1C3(C)C)[C@]1(OC(C)=O)CO[C@@H]1C[C@@H]2O [Paclitaxel, paclitaxel] gave an IC50 [1, 4] of 10 nM.

B1: monoclonal antibody #1: mouse anti-CAPRIN-1 monoclonal antibody; heavy chain variable region SEQ ID NO: 43, light chain variable region SEQ ID NO: 47 (antibody, listed as Mus musculus, V domains shown)
VH: MEWSGVFIFLLSGTAGVLSEVQLHQFGAELVKPGASVKISCKASGYTFTDYNMDWVKQSHGKSLEWIGDINPNYDSTSYNQKFKGKATLTVDKSSSTAYMELRSLTSEDTAVYYCARSRSYDYEGFAYWGQGTLVTVSAAKTTPPSVY
VL: MSVLTQVLGLLLLWLTGARCDIQMTQSPASLSASVGETVTITCRASGNIHNYLAWYQQKQGKSPQLLVYNAKTLADGVPSRFSGSGSGTQYSLKINSLQPEDFGSYYCQHFWSTLTFGAGTKLELKRADAAPTVSNPYD
With B1 the “ADCC activity (cytotoxic activity) against MDA-MB-157” value (shortened to “ADCC activity (cytotoxic activity)”) [2] was 22.1%.

B2: monoclonal antibody #2: mouse anti-CAPRIN-1 monoclonal antibody; heavy chain variable region SEQ ID NO: 43, light chain variable region SEQ ID NO: 53 (antibody, listed as Mus musculus, V domains shown)
VH: MEWSGVFIFLLSGTAGVLSEVQLHQFGAELVKPGASVKISCKASGYTFTDYNMDWVKQSHGKSLEWIGDINPNYDSTSYNQKFKGKATLTVDKSSSTAYMELRSLTSEDTAVYYCARSRSYDYEGFAYWGQGTLVTVSAAKTTPPSVY
VL: AVLRCSRGLLVIWISDIQLTQSPSSLAVTAGEKVTMSCKSSQSLLWSVNQKNYLSWYQQKQRQPPKLLIYGASIRESWVPDRFTGSGSGTDFTLTISNVHAEDLAVYYCQHNHGSFLPSRSEQVPSWRSNNR
In the case of B2, the “ADCC activity (cytotoxic activity)” value [2] is reported as 29.1% and the “tumor volume relative to PBS(−) control group designated at 100%” value [3] is reported as “about 56%”.

B3: monoclonal antibody #6: mouse anti-CAPRIN-1 monoclonal antibody; heavy chain variable region SEQ ID NO: 73, light chain variable region SEQ ID NO: 77 (antibody, listed as Mus musculus, V domains shown)
VH: DILQASGYSFTGYTMNWVKQSHGKNLEWIGLINPYNGGTSYNQKFKGKATLTVDKSSSTAYMELLSLTSEDSAVYYCARWGVWSAMDYWGQGTTVTVSSK
VL: DRVSITCKASQNVRTAVAWYQQKPRQSPKALIYLASNRDTGLPDRFPGRGSGTDFTLNITNVQSEDLEDYFCLQHCNYPNEFRGCTKVPI
For B3, the “ADCC activity (cytotoxic activity)” value [2] was 30.2%.
